Assay results: patent US20210196751A1, “METHODS OF CANCER TREATMENT USING AN ATR INHIBITOR” (Vertex Pharmaceuticals Incorporated, priority 2017, published 2021)

Tested on: panel of 552 cancer cell lines
Assay: Growth inhibition (ATPLite) of ATR inhibitor in combination with cisplatin or gemcitabine; synergy score from AUC difference
Type: cell-based
Conditions: 96 hours; for synergy when combined with cisplatin: in combination with cisplatin; for synergy when combined with gemcitabine: in combination with gemcitabine
Procedure: Cell Culture Methods. Cells were removed from liquid nitrogen storage, thawed and expanded in appropriate growth media. Once expanded, cells were seeded in 384-well tissue culture treated plates at 500 cells per well. […] At the end of either 0 hours or 96 hours, cell status was analyzed using ATPLite (adenosine triphosphate monitoring system; Perkin Elmer) to assess the biological response of cells to drug combinations.
In this study, growth inhibition (GI) was used as the primary endpoint. ATP monitoring was performed using ATPLite, which allows for the monitoring of cytocidal, cytostatic and proliferative effects of drugs on cells.
Data Analysis to Assess Synergy of Combination Treatments. […] Synergy was evaluated using the sum of the AUC (Area Under the Curve) difference.
Briefly, combination treatment effect was calculated as the AUC normalized to the single agent effect of the ATR inhibitor compound. Total synergy or antagonism was calculated as the difference between the normalized combination AUC and the genotoxin single agent AUC. As before, the synergy score was normalized by dividing the total synergy score by the total number of regimens used.

| SMILES | synergy when combined with cisplatin | synergy when combined with gemcitabine |
| --- | --- | --- |
| Nc1nn2cc(F)cnc2c1C(=O)Nc1cncc(F)c1N1CCC(C(=O)N2CCN(C3COC3)CC2)CC1 [I-G-32] | synergistic | synergistic |
| CNCc1ccc(-c2cc(-c3nc(-c4ccc(S(=O)(=O)C(C)C)cc4)cnc3N)on2)cc1 [IIA-7] | synergistic | synergistic |
